Source: patent US20050153021A1, “Calcium-fortified protein-based beverage containing calcium (lactate) gluconate citrate” (PURAC BIOCHEM BV, priority 2003, published 2005)

Legend:
[1] = Stability test in presence of protein: calcium salt added to milk, heat treatment; assay type: physicochemical; conditions: 600 ppm calcium added
[2] = Stability test in presence of protein: calcium salt added to soy milk, heat treatment; assay type: physicochemical; conditions: 600 ppm calcium added

Row | Structure (SMILES) | protein stability (coagulation) of the fortified milk after heat treatment [1] | protein stability (coagulation / viscosity) of the fortified soy milk after heat treatment [2]
1 | CC(O)C(=O)O.O=C(O)[C@H](O)[C@@H](O)[C@H](O)[C@H](O)CO.O=C([O-])CC(O)(CC(=O)[O-])C(=O)O.[Ca+2] [calcium lactate gluconate citrate] | coaglulated a little to become a quark like substance | somewhat increased viscosity after heat treatment, but was still pourable
2 | CC(O)C(=O)[O-].O=C([O-])[C@H](O)[C@@H](O)[C@H](O)[C@H](O)CO.[Ca+2] [calcium lactate gluconate] | completely coagulated to a firm substance | completely coagulated to a firm substance
